Drawing on publication PMC5231396 (ACS chemical neuroscience, 2016), this text covers EC50 for one molecule.

The experiment addresses T1, M1 muscarinic acetylcholine receptor (Mus musculus, UniProt P12657).
T1 sequence (P12657 1-460): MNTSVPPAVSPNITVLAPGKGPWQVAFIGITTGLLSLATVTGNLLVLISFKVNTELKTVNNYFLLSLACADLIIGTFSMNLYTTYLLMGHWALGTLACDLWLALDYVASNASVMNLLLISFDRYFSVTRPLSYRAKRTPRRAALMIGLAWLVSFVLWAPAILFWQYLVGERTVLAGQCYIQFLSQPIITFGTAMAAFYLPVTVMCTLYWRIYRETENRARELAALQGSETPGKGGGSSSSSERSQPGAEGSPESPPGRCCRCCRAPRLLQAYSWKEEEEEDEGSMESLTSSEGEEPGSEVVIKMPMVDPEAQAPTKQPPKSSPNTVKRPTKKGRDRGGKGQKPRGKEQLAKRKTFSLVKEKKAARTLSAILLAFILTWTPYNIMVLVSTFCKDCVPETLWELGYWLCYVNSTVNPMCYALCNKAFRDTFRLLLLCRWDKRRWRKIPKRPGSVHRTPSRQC
Nature of the experiment: previously published M1 PAM compared side-by-side with VU6004256. The experiment is classed as cell-based.

In turn, `Cn1cc(-c2ccc(CN3Cc4ncccc4C3=O)c(F)c2)cn1` [compound 1, VU0453595] yielded an EC50 of 3.22 µM.

For orientation: EC50 means the concentration needed to bring the measured effect to its halfway point. A lower EC50 goes with greater potency.
